Results published in patent US20120130078A1, “INDAZOLE DERIVATIVES AS ADENOSINE MONOPHOSPHATE DEAMINASE (AMPD) INHIBITORS FOR USE IN DIABETES AND RELATED DISEASES OF METABOLIC SYNDROME” (priority 2010, published 2012).

Experiments:
AMP deaminase (AMPD) = test: AMP deaminase enzymatic assay (in vitro); type: biochemical; conditions: for AMPD inhibition, comparison of three synthesized compounds: FIG. 9
Experimental: AMP deaminase activity was measured as described by Ashby and Frieden (4). Standard assay monitored the absorbance change at 285 nm as a result of AMP conversion to IMP in a reaction volume of 2 mL containing 50 mM imidazole-HCl (pH 7.0), 2 mM AMP and 150 mM KCl. One unit of enzyme activity is defined as the amount of protein required to produce 1 μmol IMP per min at 25° C. under standard conditions.

L6 cells [1] = test: Glucose uptake assay (2-deoxyglucose uptake) in L6 cells; type: cell-based; conditions: FIG. 1, 4, 10
Experimental: Glucose uptake was determined as the rate of 2-deoxy-D-[2,6-^3H]glucose uptake, using modification of a previous method (15). The cells were first incubated for 15 min with Krebs-Henseleit Bicarbonate buffer (KHB), glucose, and other agents as indicated. At this point, the labeled deoxyglucose (0.6 μCi) was added to each well and the incubation continued for 45 min. The media was aspirated, and the wells were washed three times with ice-cold KHB to remove exogenous label. The cells were lysed by the addition of 0.1% Triton-X100 (1 mL). Samples of each well were mixed with aqueous scintillation fluid and measured by liquid scintillation counting.

L6 cells [2] = test: Palmitate (fatty acid) oxidation assay in L6 cells; type: cell-based; conditions: FIG. 2, 3, 11
Experimental: Palmitate oxidation was determined by a modification of quantitative measuring the rate of ^14CO2 production from ^14C-labeled palmitic acid as described previously (24). The KHB for these incubations was supplemented with fatty-acid poor albumin, dialyzed against the same buffer (three changes). The final albumin concentration was 1%. After an initial 10 min of incubation, all samples received 2 mM carnitine and [1-^14C]-palmitic acid (1 μCi/mole), and other additions as noted, and incubations continued to the end of 3 h. Aliquots of 0.8 mL were taken from each well to an eppendorf tube. […] 200 μL of 3 M perchloric acid was carefully added to the 0.8 mL to ensure no acid was deposited on the side of the tube, and the lid was quickly closed. The tubes were incubated overnight to allow the [^14C] CO2 to be absorbed into the wick. The caps were removed with scissors and placed in 10 mL of liquid scintillation fluid for counting.

L6 cells [3] = test: Ammonia assay, ammonia formation by intact cells; type: cell-based; conditions: FIG. 7, 12
Experimental: Ammonia was measured as described by Kun et al. (19). Briefly, after two hours incubation with or without 10 mM metformin, 0.5 mL of samples were added into cuvette and mixed with assay reagents (100 mM Tris buffer, 10 mM α-ketoglutaric acid, 0.24 mM NADH in 1 mL). Absorbance was measured at 340 nm with spectro-photometer (Hitachi, U-2000). 20 μL of glutamate dehydrogenase (200 μg/mL) was added into cuvette and mixed, and absorbance was measured again after 1 hour at 340 nm.

L6 muscle cell line [4] = test: Lactate formation in L6 muscle cell line; type: cell-based
L6 muscle cell line [5] = test: Glycogen synthesis in L6 muscle cell line; type: cell-based
AMPK = test: Phosphorylation of AMPK; type: cell-based
acetyl CoA carboxylase = test: Phosphorylation of acetyl CoA carboxylase; type: cell-based
[6] = test system: cells with adenylate kinase knockout; test: Metformin action in cells with adenylate kinase knockout (siRNA); type: cell-based; conditions: adenylate kinase knockout using siRNA; FIG. 5

Compound | glucose transport / glucose uptake (L6 cells [1]) | palmitate / fatty acid oxidation (L6 cells [2]) | ammonia formation (L6 cells [3]) | AMPD inhibition, comparison of three synthesized compounds (AMP deaminase (AMPD)) | other results
CN(C)C(=N)N=C(N)N [metformin] | stimulation of glucose transport | stimulation | decrease in ammonia formation |  | AMPD activity measured in vitro (AMP deaminase (AMPD); FIG. 6): inhibited AMPD activity; lactate formation (L6 muscle cell line [4]): stimulation; glycogen synthesis (L6 muscle cell line [5]): inhibition of glycogen synthesis; phosphorylation of the AMPK (AMPK): direct phosphorylation of the AMPK; phosphorylation of acetyl CoA carboxylase (acetyl CoA carboxylase): phosphorylation; effect of adenylate kinase deletion on metformin action [6]: no effect
COC(=O)c1cccc2[nH]ncc12 [SKTT-12, methyl 1H-indazole-4-carboxylate] |  |  |  | somewhat less effective | 
COC(=O)c1n[nH]c2ccccc12 [SKTT-2, methyl 1H-indazole-3-carboxylate] | stimulated glucose uptake | replicated the metformin stimulation of fatty acid oxidation | suppressed ammonia formation | similar | 
NC(=O)c1n[nH]c2ccccc12 [SKTT-1, 1H-indazole-3-carboxamide] | stimulated glucose uptake | replicated the metformin stimulation of fatty acid oxidation | suppressed ammonia formation | similar | AMPD inhibition curves, potency compared with metformin (AMP deaminase (AMPD); FIG. 8, compared with metformin): more potent
[NH-]c1c[n+](N2CCOCC2)no1 [SIN-1] | stimulation of glucose transport | inhibits fatty acid oxidation |  |  | 
C=C(C)[C@H]1Cc2c(ccc3c2O[C@@H]2COc4cc(OC)c(OC)cc4[C@@H]2C3=O)O1 [rotenone] | does increase glucose uptake | leads only to inhibition of fatty acid oxidation |  |  | 
